Experimental data taken from patent US6827949B2, “Wood preservative” (Takeda Chemical Industries, Ltd., priority 2001, dated 2004).

What follows are compounds tested on Fomitopsis palustris (assay: Wood-decaying fungal growth inhibition test). Settings: filter paper immersed in 5 w/w % acetone solution, placed on Fomitopsis palustris on PDA medium; Control 1.
Format: cell-based
Parameters: key: 0: No growth; 1: Fungal growth
Text: A No.2 filter paper of 1×1 cm in size was immersed in the solution, taken out and then air-dried. The filter was then placed on a Fomitopsis palustris which had been cultivated on a PDA medium in a petri dish and observed conditions of fungal growth for 8 weeks.
In the case of COC1=CC(=O)OC(CCc2ccc(OC)cc2)C1 (stereo not shown) [5,6,7,8-Tetrahydroyangonin], the “Fungal growth after 8 weeks” value is reported as 0.
For COc1cc(/C=C/c2ccccc2)oc(=O)c1 [5,6-Dehydrokawain], the “Fungal growth after 8 weeks” value was 0.
In the case of COC1=CC(=O)O[C@@H](CCc2ccccc2)C1 [7,8-Dihydrokawain], the “Fungal growth after 8 weeks” value is reported as 0.
For COC1=CC(=O)O[C@@H](CCc2ccc3c(c2)OCO3)C1 [7,8-Dihydromethysticin], the “Fungal growth after 8 weeks” value was 0.
In the case of COC1=CC(=O)O[C@@H](/C=C/c2ccccc2)C1 [Kawain], the “Fungal growth after 8 weeks” value is reported as 0.
COC1=CC(=O)O[C@@H](/C=C/c2ccc3c(c2)OCO3)C1 [Methysticin] was tested, and the “Fungal growth after 8 weeks” value was 0.
With COc1ccc(/C=C/c2cc(OC)cc(=O)o2)cc1 [Yangonin] the “Fungal growth after 8 weeks” value was 0.

These compounds were tested on worker ants of Coptotermes formosanus (assay: Damage (ingestion) inhibition test (filter paper)). Settings: filter paper immersed in 1 w/w % solution in acetone (hispidin in methanol); 100 worker ants; Control 4.
Format: in vivo
Parameters: key: 0: No damage; 1: Damage of ½ or less; 2: Damage of ½ to ¾; 3: Damage of ¾ with some remainder; 4: Complete damage
Method: A 1 w/w % solution of each compound shown in Table 7 in acetone (except for hispidin which was prepared as a 1 w/w % solution in methanol) was prepared.
In this solution, a No.2 filter paper of 1×1 cm in size was immersed, taken out and then air-dried. It was then placed in a 11-K bottle in which 100 worker ants of Coptotermes formosanus had been kept, and the ingestion behavior was observed. Hispidin employed was a reagent produced by Calbiochem.
COC1=CC(=O)OC(CCc2ccc(OC)cc2)C1 (stereo not shown) [5,6,7,8-Tetrahydroyangonin] was tested, and the “Damage degree after 1 week” value was 0.
For COc1cc(/C=C/c2ccccc2)oc(=O)c1 [5,6-Dehydrokawain], the “Damage degree after 1 week” value was 1.
COC1=CC(=O)O[C@@H](CCc2ccccc2)C1 [7,8-Dihydrokawain] was tested, and the “Damage degree after 1 week” value was 0.
For COC1=CC(=O)O[C@@H](CCc2ccc3c(c2)OCO3)C1 [7,8-Dihydromethysticin], the “Damage degree after 1 week” value was 0.
In the case of O=c1cc(O)cc(/C=C/c2ccc(O)c(O)c2)o1 [Hispidin, reference compound], the “Damage degree after 1 week” value is reported as 1.
For COC1=CC(=O)O[C@@H](/C=C/c2ccccc2)C1 [Kawain], the “Damage degree after 1 week” value was 1.
With COC1=CC(=O)O[C@@H](/C=C/c2ccc3c(c2)OCO3)C1 [Methysticin] the “Damage degree after 1 week” value was 0.
For COc1ccc(/C=C/c2cc(OC)cc(=O)o2)cc1 [Yangonin], the “Damage degree after 1 week” value was 1.

What follows are compounds tested on spore mixture of Aspergillus niger, Penicillin funculosum, Aureobasidium pullulans and Gliocladium virens (assay: Woodstaining fungal growth inhibition test). Settings: filter paper immersed in 5 w/w % acetone solution, sprayed with spore mixture, 2% agar; Control 1.
Format: cell-based
Parameters: key: 0: No fungal growth; 1: Fungal growth
Text: In the solution, a No.2 filter paper of 1×1 cm in size was immersed, taken out and then air-dried.
Aureobasidium pullulans and […]
COC1=CC(=O)OC(CCc2ccc(OC)cc2)C1 (stereo not shown) [5,6,7,8-Tetrahydroyangonin] was tested, and the “Fungal growth after 3 days” value was 0.
In the case of COc1cc(/C=C/c2ccccc2)oc(=O)c1 [5,6-Dehydrokawain], the “Fungal growth after 3 days” value is reported as 0.
In the case of COC1=CC(=O)O[C@@H](CCc2ccccc2)C1 [7,8-Dihydrokawain], the “Fungal growth after 3 days” value is reported as 0.
COC1=CC(=O)O[C@@H](CCc2ccc3c(c2)OCO3)C1 [7,8-Dihydromethysticin] was tested, and the “Fungal growth after 3 days” value was 0.
With COC1=CC(=O)O[C@@H](/C=C/c2ccccc2)C1 [Kawain] the “Fungal growth after 3 days” value was 0.
For COC1=CC(=O)O[C@@H](/C=C/c2ccc3c(c2)OCO3)C1 [Methysticin], the “Fungal growth after 3 days” value was 0.
In the case of COc1ccc(/C=C/c2cc(OC)cc(=O)o2)cc1 [Yangonin], the “Fungal growth after 3 days” value is reported as 0.
